# How the values were obtained:
# [1] = target: T1, Prostaglandin G/H synthase 1 (Ovis aries, UniProt P05979); test: Inhibition of COX1 in ram seminal vesicle microsomes assessed as reduction of PGE2 formation; design: species or system Microsome
# T1 sequence (P05979 whole entry): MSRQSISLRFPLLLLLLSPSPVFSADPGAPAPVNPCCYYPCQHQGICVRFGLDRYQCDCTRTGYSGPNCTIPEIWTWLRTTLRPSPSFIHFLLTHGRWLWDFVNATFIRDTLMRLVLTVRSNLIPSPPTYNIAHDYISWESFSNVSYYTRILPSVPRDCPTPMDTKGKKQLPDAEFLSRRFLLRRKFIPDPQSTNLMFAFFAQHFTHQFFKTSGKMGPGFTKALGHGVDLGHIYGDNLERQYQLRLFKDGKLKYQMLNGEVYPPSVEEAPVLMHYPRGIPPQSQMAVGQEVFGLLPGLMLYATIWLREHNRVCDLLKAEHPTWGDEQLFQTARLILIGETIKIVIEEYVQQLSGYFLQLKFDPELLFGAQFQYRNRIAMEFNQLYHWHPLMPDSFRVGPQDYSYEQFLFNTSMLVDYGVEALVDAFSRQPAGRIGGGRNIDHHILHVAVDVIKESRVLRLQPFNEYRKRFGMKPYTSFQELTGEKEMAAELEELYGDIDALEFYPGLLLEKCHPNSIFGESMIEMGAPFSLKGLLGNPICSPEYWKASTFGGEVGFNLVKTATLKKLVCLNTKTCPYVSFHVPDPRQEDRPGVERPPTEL
# [2] = target: T2, Prostaglandin G/H synthase 1 (Ovis aries) (UniProt P05979); conditions: Seminal vesicle, Microsome, 5 uM
# T2 sequence (whole entry): T1 sequence (P05979 whole entry)
# Description: Inhibition of COX1 in ram seminal vesicle microsomes assessed as reduction of PGE2 formation at 5 uM
IC50 [1] [µM],inhibition [2] [%],Structure (SMILES)
23.2,–,COc1cc2c(c3c1C=COC=C3)O[C@@H](C(C)(C)O)C2 [PERILLOXIN]
30.4,–,COc1cc2cc(C(C)(C)O)oc2c2c1C=COC=C2
–,0.2,COc1ccc2c(c1)c(CC(=O)O)c(C)n2C(=O)c1ccc(Cl)cc1

# From ChEMBL document CHEMBL1154552, “Two new prenylated 3-benzoxepin derivatives as cyclooxygenase inhibitors from Perilla frutescens var. acuta” (J Nat Prod, 2000)
